# Data taken from PubChem BioAssay (NCI).
#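 GI50: concentration for 50% inhibition of growth. At the TGI there is no net growth.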
# Key:
# Assay in all cases: growth of human tumour cells (NCI), 384-well format
# [1] = test system: MCF7 breast
# [2] = test system: BT-549 breast
# [3] = test system: A498 renal
# [4] = test system: CCRF-CEM leukemia
# [5] = test system: SR leukemia
# [6] = test system: OVCAR-5 ovarian
# [7] = test system: RXF 393 renal
# [8] = test system: UACC-257 melanoma
# [9] = test system: U251 glioblastoma
# [10] = test system: A549 NSCLC
# [11] = test system: HOP-62 NSCLC
# [12] = test system: OVCAR-3 ovarian
# [13] = test system: HL-60(TB) leukemia
# [14] = test system: T-47D breast
# [15] = test system: COLO 205 colon
# [16] = test system: DU-145 prostate
# [17] = test system: 786-0 renal
# [18] = test system: EKVX NSCLC
# [19] = test system: OVCAR-4 ovarian
# [20] = test system: HCT-15 colon
# [21] = test system: SK-MEL-5 melanoma
# [22] = test system: MDA-MB-231 breast
# [23] = test system: SF-295 CNS
# [24] = test system: MDA-MB-468 breast
# [25] = test system: SNB-75 CNS
# [26] = test system: HT29 colon
# [27] = test system: NCI-H23 lung
# [28] = test system: SW-620 colon
# [29] = test system: UO-31 renal
# [30] = test system: NCI/ADR-RES ovarian
# [31] = test system: SK-MEL-28 melanoma
# [32] = test system: HCT-116 colon
# [33] = test system: ACHN renal
# [34] = test system: NCI-H322M lung
# [35] = test system: MOLT-4 leukemia
# [36] = test system: SK-OV-3 ovarian
# [37] = test system: SF-539 CNS
# [38] = test system: K-562 leukemia
# [39] = test system: NCI-H460 NSCLC
# [40] = test system: KM12 colon
# [41] = test system: NCI-H522 lung
# [42] = test system: SF-268 CNS
# [43] = test system: CAKI-1 renal
# [44] = test system: HCC-2998 colon
# [45] = test system: MALME-3M melanoma
# [46] = test system: RPMI-8226 leukemia
# [47] = test system: SNB-19 CNS
# [48] = test system: LOX IMVI melanoma
# [49] = test system: IGROV1 ovarian
# [50] = test system: NCI-H226 lung
# [51] = test system: MDA-MB-435 melanoma
# [52] = test system: HS 578T breast
# [53] = test system: SN12C renal
# [54] = test system: TK-10 renal
# [55] = test system: OVCAR-8 ovarian
# [56] = test system: PC-3 prostate
# [57] = test system: HOP-92 NSCLC
# [58] = test system: M14 melanoma
smiles,measurement,setting,value
CCN1C(=O)CNc2ncc(-c3ccc(-c4ncn[nH]4)nc3C)nc21,GI50,[1],< 10 nM
same,TGI,[1],101 nM
same,GI50,[2],15.8 nM
same,TGI,[2],53.1 nM
same,GI50,[3],14.1 nM
same,TGI,[3],82 nM
same,GI50,[4],23.4 nM
same,TGI,[4],135 nM
same,GI50,[5],11.1 nM
same,TGI,[5],24.9 nM
same,GI50,[6],28.5 nM
same,TGI,[6],2430 nM
same,GI50,[7],22.1 nM
same,TGI,[7],63.9 nM
same,GI50,[8],40.2 nM
same,TGI,[8],270 nM
same,GI50,[9],38.5 nM
same,TGI,[9],217 nM
same,GI50,[10],27.5 nM
same,TGI,[10],181 nM
same,GI50,[11],16.8 nM
same,TGI,[11],49 nM
same,GI50,[12],29.8 nM
same,TGI,[12],227 nM
same,GI50,[13],25.9 nM
same,TGI,[13],59.8 nM
same,GI50,[14],< 10 nM
same,TGI,[14],34.3 nM
same,GI50,[15],21.8 nM
same,TGI,[15],145 nM
same,GI50,[16],34.1 nM
same,TGI,[16],240 nM
same,GI50,[17],46.2 nM
same,TGI,[17],375 nM
same,GI50,[18],19.1 nM
same,TGI,[18],115 nM
same,GI50,[19],15.4 nM
same,TGI,[19],178 nM
same,GI50,[20],32 nM
same,TGI,[20],1040 nM
same,GI50,[21],< 10 nM
same,TGI,[21],39.9 nM
same,GI50,[22],23.1 nM
same,TGI,[22],12700 nM
same,GI50,[23],< 10 nM
same,TGI,[23],32.8 nM
same,GI50,[24],16 nM
same,TGI,[24],75.1 nM
same,GI50,[25],< 10 nM
same,TGI,[25],37.9 nM
same,GI50,[26],42.7 nM
same,TGI,[26],1740 nM
same,GI50,[27],18.4 nM
same,TGI,[27],52.4 nM
same,GI50,[28],32 nM
same,TGI,[28],1130 nM
same,GI50,[29],17.9 nM
same,TGI,[29],91 nM
same,GI50,[30],37.2 nM
same,TGI,[30],220 nM
same,GI50,[31],23.5 nM
same,TGI,[31],174 nM
same,GI50,[32],45 nM
same,TGI,[32],193 nM
same,GI50,[33],20 nM
same,TGI,[33],94 nM
same,GI50,[34],27.7 nM
same,TGI,[34],507 nM
same,GI50,[35],11.8 nM
same,TGI,[35],27.4 nM
same,GI50,[36],21.7 nM
same,TGI,[36],184 nM
same,GI50,[37],36 nM
same,TGI,[37],271 nM
same,GI50,[38],46.5 nM
same,TGI,[38],1700 nM
same,GI50,[39],10.7 nM
same,TGI,[39],146 nM
same,GI50,[40],28 nM
same,TGI,[40],1420 nM
same,GI50,[41],14 nM
same,TGI,[41],134 nM
same,GI50,[42],18.6 nM
same,TGI,[42],52.6 nM
same,GI50,[43],18.4 nM
same,TGI,[43],53.3 nM
same,GI50,[44],52.6 nM
same,TGI,[44],285 nM
same,GI50,[45],< 10 nM
same,TGI,[45],41 nM
same,GI50,[46],< 10 nM
same,TGI,[46],12.3 nM
same,GI50,[47],64.6 nM
same,TGI,[47],706 nM
same,GI50,[48],41.2 nM
same,TGI,[48],150 nM
same,GI50,[49],12.4 nM
same,TGI,[49],46.7 nM
same,GI50,[50],18.3 nM
same,TGI,[50],69.6 nM
same,GI50,[51],36.3 nM
same,TGI,[51],284 nM
same,GI50,[52],11.2 nM
same,TGI,[52],34.7 nM
same,GI50,[53],28.2 nM
same,TGI,[53],333 nM
same,GI50,[54],23.4 nM
same,TGI,[54],143 nM
same,GI50,[55],32.7 nM
same,TGI,[55],1070 nM
same,GI50,[56],10.5 nM
same,TGI,[56],48.2 nM
same,GI50,[57],19.6 nM
same,TGI,[57],145 nM
same,GI50,[58],18.7 nM
same,TGI,[58],420 nM
